The values below come from patent publication US6194383A, “Lipopeptides from actinoplanes sp. with pharmacological action, process for their production and the use thereof” (Hoechst Aktiengesellschaft, priority 1993, dated 2001).

What all share (assay type): cell-based
One experiment relates to relevant organisms. The experiment in a line: agar dilution test, MIC, in vitro activity (AB spectrum). The note with it: Muller-Hinton agar, 37° C., 24 hours. As for the experimental part: (§1) The sensitivity of relevant organisms to the A 1437 lipopeptides is determined by an agar dilution test. The agar used is Muller-Hinton agar to which, in the case of S. pyogenes and the Enterococci, 10% horse blood is added. The antibiotic-containing plates are inoculated using a multichannel inoculator (5×10^4 cfu/inoculation site of a stationary culture of the particular strain). The MIC values (minimum inhibitory concentration) are read off at 37° C. The MIC is defined as the concentration of the antibiotic at which no visible growth of the organisms is detectable after incubation for 24 hours. The amphomycin used as control was obtained from Boehringer Mannheim (Germany). Amphomycin can be obtained as fine chemical therefrom.

Another experiment relates to Enterococcus faecium VR1. The experiment in a line: agar dilution test, MIC, vancomycin-resistant strains. The note with it: Muller-Hinton agar with 10% horse blood, 37° C., 24 hours. As for the experimental part: as §1
A general note: Agar dilution tests growth on a series of plates holding different concentrations.

The next experiment relates to Enterococcus faecium VR2. The experiment is described as above. The following applies: Muller-Hinton agar with 10% horse blood, 37° C., 24 hours. As for the experimental part:
as §1

For another experiment, the system named is Streptococcus pyogenes. The experiment in a line: agar dilution test, MIC, vancomycin-resistant strains table. The following applies: Muller-Hinton agar with 10% horse blood, 37° C., 24 hours. As for the experimental part:
as §1

[1] abbreviates: 1st of 6 value columns, strain not given.
The mark [2] stands for this setting: 2nd of 6 value columns, strain head not printed.
The mark [3] stands for this setting: 3rd of 6 value columns, strain not given.
The mark [4] stands for this setting: 4th of 6 value columns, strain not given.
Where [5] appears, read: 5th of 6 value columns, strain not given.
[6] abbreviates: 6th of 6 value columns, strain head not printed.

With Amphomycin [reference compound], the “MIC, in vitro activity (AB spectrum), concentration” value (“MIC … (AB spectrum), concentration” below) against relevant organisms (setting [1]) worked out at 0.195 µg/mL; against relevant organisms (setting [2]), 0.781 µg/mL; against relevant organisms (setting [3]) it was 0.391 µg/mL; in the experiment on relevant organisms (setting [4]), 1.56 µg/mL; against relevant organisms (setting [5]), 0.391 µg/mL; in the experiment with relevant organisms (setting [6]), 1.56 µg/mL. Further, the results for the “MIC, in vitro activity (vancomycin-resistant strains), concentration” value against Enterococcus faecium VR1, in the experiment on Enterococcus faecium VR2 and in the experiment with Streptococcus pyogenes were 4 µg/mL, 4 µg/mL and 2 µg/mL, respectively.

With “aiC13 -fatty acid-Asn-Dab-Pip-MeAsp-Asp-Gly-Asp-Gly-Dab-Val-Pro [A 1437 F]”, the “MIC … (AB spectrum), concentration” value turned out to be 0.098 µg/mL against relevant organisms (setting [1]); 0.391 µg/mL in the experiment with relevant organisms (setting [2]); 0.195 µg/mL in the experiment with relevant organisms (setting [3]); 1.56 µg/mL against relevant organisms (setting [4]); 0.781 µg/mL against relevant organisms (setting [5]); 1.56 µg/mL against relevant organisms (setting [6]). Also, the “MIC, in vitro activity (vancomycin-resistant strains), concentration” value came out at 4 µg/mL in the experiment on Enterococcus faecium VR1, 4 µg/mL against Enterococcus faecium VR2 and 1 µg/mL in the experiment on Streptococcus pyogenes.

As for “aiC15 -fatty acid-Asn-Dab-Pip-MeAsp-Asp-Gly-Asp-Gly-Dab-Val-Pro [A 1437 H]”, the “MIC … (AB spectrum), concentration” value against relevant organisms (setting [1]) came to 0.049 µg/mL; against relevant organisms (setting [2]), 0.098 µg/mL; in the experiment with relevant organisms (setting [3]), 0.049 µg/mL; in the experiment with relevant organisms (setting [4]) it was 0.195 µg/mL; with relevant organisms (setting [5]), 0.049 µg/mL; in the experiment with relevant organisms (setting [6]), 0.195 µg/mL. Moreover, the “MIC, in vitro activity (vancomycin-resistant strains), concentration” value against Enterococcus faecium VR1 turned out to be 1 µg/mL; against Enterococcus faecium VR2, 1 µg/mL; against Streptococcus pyogenes, 0.5 µg/mL.

In the case of “aiC15 -fatty acid-Asp-Dab-Pip-MeAsp-Asp-Gly-Asp-Gly-Dab-Val-Pro [A 1437 G]”, the “MIC … (AB spectrum), concentration” value in the experiment with relevant organisms (setting [1]) worked out at 0.098 µg/mL; with relevant organisms (setting [2]), 0.195 µg/mL; against relevant organisms (setting [3]) it was 0.049 µg/mL; against relevant organisms (setting [4]), 0.088 µg/mL; with relevant organisms (setting [5]) it was 0.025 µg/mL; against relevant organisms (setting [6]), 0.195 µg/mL. Besides, the entries for the “MIC, in vitro activity (vancomycin-resistant strains), concentration” value with Enterococcus faecium VR1, against Enterococcus faecium VR2 and in the experiment on Streptococcus pyogenes were 0.25 µg/mL, 0.25 µg/mL and 0.125 µg/mL, respectively.

In the case of “iC13 -fatty acid-Asp-Dab-Pip-MeAsp-Asp-Gly-Asp-Gly-Dab-Val-Pro [A 1437 A]”, the “MIC … (AB spectrum), concentration” value stood at 0.391 µg/mL with relevant organisms (setting [1]); 0.781 µg/mL against relevant organisms (setting [2]); 0.391 µg/mL in the experiment with relevant organisms (setting [3]); 1.56 µg/mL against relevant organisms (setting [4]); 0.391 µg/mL with relevant organisms (setting [5]); 3.13 µg/mL against relevant organisms (setting [6]).

For “iC14 -fatty acid-Asn-Dab-Pip-MeAsp-Asp-Gly-Asp-Gly-Dab-Val-Pro [A 1437 D]”, the “MIC … (AB spectrum), concentration” value was 0.049 µg/mL in the experiment on relevant organisms (setting [1]); 0.195 µg/mL in the experiment on relevant organisms (setting [2]); 0.049 µg/mL against relevant organisms (setting [3]); 0.781 µg/mL with relevant organisms (setting [4]); 0.391 µg/mL against relevant organisms (setting [5]); 0.781 µg/mL with relevant organisms (setting [6]). Besides, the “MIC, in vitro activity (vancomycin-resistant strains), concentration” value with Enterococcus faecium VR1 came to 2 µg/mL; against Enterococcus faecium VR2, 2 µg/mL; in the experiment on Streptococcus pyogenes, 1 µg/mL.

“iC14 -fatty acid-Asp-Dab-Pip-MeAsp-Asp-Gly-Asp-Gly-Dab-Val-Pro [A 1437 B]”: the “MIC … (AB spectrum), concentration” value against relevant organisms (setting [1]) was 0.098 µg/mL; in the experiment with relevant organisms (setting [2]), 0.195 µg/mL; in the experiment with relevant organisms (setting [3]) it was 0.098 µg/mL; against relevant organisms (setting [4]), 0.195 µg/mL; against relevant organisms (setting [5]), 0.049 µg/mL; against relevant organisms (setting [6]), 0.391 µg/mL. For the same substance, the “MIC, in vitro activity (vancomycin-resistant strains), concentration” value against Enterococcus faecium VR1 turned out to be 1 µg/mL; against Enterococcus faecium VR2, 1 µg/mL; against Streptococcus pyogenes, 0.5 µg/mL.

“ic13 -fatty acid-Asn-Dab-Pip-MeAsp-Asp-Gly-Asp-Gly-Dab-Val-Pro [A 1437 C]”: the “MIC … (AB spectrum), concentration” value with relevant organisms (setting [1]) was found to be 0.195 µg/mL; with relevant organisms (setting [2]) it was 0.781 µg/mL; with relevant organisms (setting [3]), 0.391 µg/mL; against relevant organisms (setting [4]) it was 3.13 µg/mL; with relevant organisms (setting [5]), 0.781 µg/mL; against relevant organisms (setting [6]) it was 3.13 µg/mL. Further, the “MIC, in vitro activity (vancomycin-resistant strains), concentration” value in the experiment on Enterococcus faecium VR1, in the experiment on Enterococcus faecium VR2 and with Streptococcus pyogenes was 4 µg/mL throughout.
